For test [1], the system named is human monocytes. The test can be described thus: Cell proliferation of a homogenous population of human monocytes (tritiated thymidine incorporation). Format: cell-based. An excerpt: In order to specify the pseudodipeptides mode of action, a second experiment has been carried out on an homogenous population of human monocytes.
Cell proliferation has been evaluated the same way as previously: […]
On the technique in general: Uptake of a labelled nucleoside into DNA is a usual measure of proliferation.

Test [2] can be described thus: Inhibitory power on the hydroxyl radical (deoxyribose oxidation, EDTA/iron, H2O2, thiobarbituric acid/MDA detection). Format: biochemical. The conditions noted are these: antioxidant 10 mM; deoxyribose substrate. The source says:
Experimental procedure described by J. M. C. Gutteridge in Biochemistry Journal, vol 224 (1984), p. 761-767: oxidation substrate: deoxyribose, system of production of the hydroxyl radical OH.:
Detection: thiobarbituric acid/mondialdehyde (MDA)
Antioxidant of reference: dipeptide β-alanyl-L-histidine (sensitive to enzymatic deactivation)

Test [3] concerns murine splenocytes. As to the kind of experiment: Immunostimulating power: proliferation of murine splenocytes (tritiated thymidine incorporation). It counts as cell-based. The conditions noted are these: for stimulation index (IS): mean of three measurements. An excerpt:
Then experimental procedure is extracted from: J. Kunert-Radek, H. Stepien, K. Lyson and M. Pawlikowki--"Effects of calcium channel modulators on the proliferation of mouse spleen lymphocytes in vitro"--Agents and Actions, vol. 29 Nos 3-4 (1990), p. 254-258.
The cell proliferation is followed by the measurement of the incorporation rate of the tritiated thymidine in the cells, expressed in number of desintegrations per mn, deduced from the background noise.
The results obtained with an immunostimulator of reference, the concanavaline A, are given for comparison.
The immunostimulating effect is expressed with a stimulation index (SI). [formula] The values correspond to the mean value of three measurements.

Test [4] in a line: Inhibitory power on the superoxide anion (xanthine oxydase/hypoxanthine, cytochrome C reduction at 550 nm). Format: biochemical. The note with it: for ability to inhibit the superoxide anion / reduction of cytochrom c (in words): enzymatic system generating superoxide anion. The source says: System of production of superoxide anion:xanthine oxydase/hypoxanthine (absence of iron).
The superoxide anion is a reducing substance. It is more especially able to reduce a substrate, the cytochrome C. Its reduction is followed with ultraviolet spectrophotometry to 550 nm.
The percentage of inhibition is described as follows: […]

From patent publication US6046340A, “Imidazole containing pseudodipeptide product and compositions containing the same” (Exsymol Societe Anonyme Monegasque, priority 1993, dated 2000) come the findings set out here.

With `N[C@@H](CCC(=O)O)C(=O)NCCc1c[nH]cn1` [L-glutamyl-histamine, L-Glutamyl-histamine], the “stimulation index (IS)” value in test [1] (2.50 μg/ml) was determined as 8.23; in test [1] (5.00 μg/ml), 39.80; in test [1] (10.00 μg/ml) it was 23.50; in test [1] (25.00 μg/ml), 2.50; in test [3] (2.5 μg/ml), 7.8; in test [3] (5.0 μg/ml), 42.7. The “stimulation index (IS)” value in test [3] (10.0 μg/ml) is listed as 42.1; in test [3] (25.0 μg/ml) it was 5.6. In addition, in test [1] (human monocytes), the “average factor of activity versus concanavaline A” value is recorded as 1.34. The “% inhibiton (hydroxyl radical OH.)” value in test [2] is 0%. The “concentration of maximal immunostimulating effect” value in test [3] (murine splenocytes) is 5 µg/mL. Further, the “% of inhibition (superoxide anion, cytochrome C reduction)” value is reported as 3,5% in test [4] (1 mM), 14% in test [4] (5 mM), 24% in test [4] (10 mM) and 35% in test [4] (20 mM). For the same compound, the “ability to inhibit the superoxide anion / reduction of cytochrom c (in words)” value in test [4] is reported as “strongly inhibit”.

`O=C(NCCc1c[nH]cn1)[C@@H]1CCCN1` [L-prolyl-histamine]: the “% inhibiton (hydroxyl radical OH.)” value in test [2] is 62%. In addition, the “ability to inhibit the superoxide anion / reduction of cytochrom c (in words)” value in test [4] is “do not have the ability to inhibit”.

`NCCC(=O)N[C@@H](Cc1c[nH]cn1)C(=O)O` [β-alanyl-L-histidine, reference compound]: in test [2], the “% inhibiton (hydroxyl radical OH.)” value is given as 38%. Moreover, in test [4], the “ability to inhibit the superoxide anion / reduction of cytochrom c (in words)” value is on record as “do not have the ability to inhibit”.

Turning to concanavaline A [reference compound], the “stimulation index (IS)” value is reported as 4.82 in test [1] (2.50 μg/ml); 29.60 in test [1] (5.00 μg/ml); 21.10 in test [1] (10.00 μg/ml); 8.3 in test [3] (2.5 μg/ml); 33.4 in test [3] (5.0 μg/ml); 61.5 in test [3] (10.0 μg/ml). For the same compound, the “stimulation index (IS)” value in test [3] (25.0 μg/ml) was determined as 4.3.
